# Assay results as given in US20100120717A1, “KINASE INHIBITORS” (priority 2006, published 2010).
# pIC50: −log10 of the molar value.
# Molecular target: Aurora B/INCENP (Homo sapiens, UniProt Q96GD4)
# Test: Determination of inhibition of AIK: Aurora B/INCENP Direct Fluorescence Polarization (IMAP) assay
# Assay type: biochemical
# Conditions: 10 uM ATP, 0.8 nM Aurora B/INCENP, 45 min at room temperature; read-out: IC50 of Exemplified Compounds Against AIK B
# Experimental: Detection of the reaction product is performed by addition of Progressive IMAP binding reagent (Molecular Devices). Reaction product may be determined quantitatively by FP using an Analyst HT plate reader (Molecular Devices) with an excitation wavelength at 485 nm and emission at 530 nm and using a Fluorescein 505 dichroic mirror.
# The assay reaction may be initiated as follows: 2 ul of (3×) 300 nM Fl-Peptide/30 uM ATP was added to each well of the plate, followed by the addition of 2 ul of (3×) inhibitor (2 fold serial dilutions for 11 data points for each inhibitor) containing 15% DMSO. Two microliters of (3×) 2.4 nM AuroraB/INCENP solution may be added to initiate the reaction (final enzyme concentration was 0.8 nM for Aurora B/INCENP). The reaction mixture may then be incubated at room temperature for 45 min, and quenched and developed by addition of 20 ul of 1 to 400 diluted Progressive IMAP binding reagent in 1× proprietary Progressive IMAP binding buffer A. Fluorescence polarization readings of the resulting reaction mixtures may be measured after a 60-minute incubation at room temperature.
# IC50 values may be calculated by non-linear curve fitting of the compound concentrations and fluorescent polarization values to the standard IC50 equation.
# Aurora B/INCENP, sequence (Q96GD4 whole entry): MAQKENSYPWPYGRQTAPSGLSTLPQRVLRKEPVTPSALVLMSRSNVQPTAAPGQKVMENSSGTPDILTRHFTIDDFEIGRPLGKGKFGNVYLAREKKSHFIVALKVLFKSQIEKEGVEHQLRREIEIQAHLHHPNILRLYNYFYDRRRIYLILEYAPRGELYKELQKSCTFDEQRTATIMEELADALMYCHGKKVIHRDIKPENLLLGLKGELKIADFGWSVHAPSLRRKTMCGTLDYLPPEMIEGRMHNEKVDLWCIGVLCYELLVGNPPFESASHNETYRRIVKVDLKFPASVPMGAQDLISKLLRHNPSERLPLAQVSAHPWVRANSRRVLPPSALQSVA
# Aurora B/INCENP, sequence (Q9NQS7 whole entry partner): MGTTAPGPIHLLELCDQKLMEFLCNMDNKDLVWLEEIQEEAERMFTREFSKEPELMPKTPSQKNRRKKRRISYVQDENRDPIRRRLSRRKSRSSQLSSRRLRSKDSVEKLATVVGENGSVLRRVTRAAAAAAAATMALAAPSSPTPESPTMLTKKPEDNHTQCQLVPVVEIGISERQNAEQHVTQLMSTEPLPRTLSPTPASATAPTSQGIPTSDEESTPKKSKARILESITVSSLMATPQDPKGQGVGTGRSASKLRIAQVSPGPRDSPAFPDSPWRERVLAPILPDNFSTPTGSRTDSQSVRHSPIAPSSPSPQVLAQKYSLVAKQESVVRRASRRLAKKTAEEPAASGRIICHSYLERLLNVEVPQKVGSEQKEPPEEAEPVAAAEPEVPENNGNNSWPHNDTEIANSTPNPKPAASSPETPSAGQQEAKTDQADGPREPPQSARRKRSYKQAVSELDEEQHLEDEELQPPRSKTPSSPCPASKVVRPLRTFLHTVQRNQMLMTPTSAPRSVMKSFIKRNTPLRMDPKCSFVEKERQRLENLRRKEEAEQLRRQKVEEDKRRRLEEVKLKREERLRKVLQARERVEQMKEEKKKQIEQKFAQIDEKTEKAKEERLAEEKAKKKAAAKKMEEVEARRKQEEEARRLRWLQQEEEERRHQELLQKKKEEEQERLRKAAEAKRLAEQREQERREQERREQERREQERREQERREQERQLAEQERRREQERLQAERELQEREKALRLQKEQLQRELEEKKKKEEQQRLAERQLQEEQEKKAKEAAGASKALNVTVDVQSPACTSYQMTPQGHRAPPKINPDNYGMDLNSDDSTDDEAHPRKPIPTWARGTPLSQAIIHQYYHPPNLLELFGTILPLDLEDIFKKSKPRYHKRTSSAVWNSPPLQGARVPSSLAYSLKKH
row,SMILES,pIC50
1,"CCS(=O)(=O)c1cccc(-c2ccc(OCCCN(C)CCOP(=O)(O)O)c3[nH]c4ncc(C)cc4c23)c1 [Compound 308, 2-((3-(5-(3-(ethylsulfonyl)phenyl)-3-methyl-9H-pyrido[2,3-b]indol-8-yloxy)propyl)(methyl)amino)ethyl dihydrogen phosphate]",≥ 8.30
2,"CN1CCC(COc2ccc(-c3cccc(S(=O)(=O)C4CC4)c3)c3c2[nH]c2ncc(Cl)cc23)CC1 [Compound 286, 3-chloro-5-(3-(cyclopropylsulfonyl)phenyl)-8-((1-methylpiperidin-4-yl)methoxy)-9H-pyrido[2,3-b]indole]",8.00 to 8.22
3,"CCS(=O)(=O)c1cccc(-c2cc(C(=O)NCC3CCN(C)CC3)c(C)c3[nH]c4ncc(C)cc4c23)c1 [Compound 114, 5-(3-(ethylsulfonyl)phenyl)-3,8-dimethyl-N-((1-methylpiperidin-4-yl)methyl)-9H-pyrido[2,3-b]indole-7-carboxamide]",≤ 7.96
4,CCS(=O)(=O)c1cccc(-c2cc(C(=O)NCCN(C)C)c(C)c3[nH]c4ncc(C)cc4c23)c1 [Compound 113],8.00 to 8.22
5,"Cc1cnc2[nH]c3c(OCC4CCN(C)CC4)ccc(-c4cccc(NC(=O)C5CC5)c4)c3c2c1 [Compound 182, N-(3-(3-methyl-8-((1-methylpiperidin-4-yl)methoxy)-9H-pyrido[2,3-b]indol-5-yl)phenyl)cyclopropanecarboxamide]",8.00 to 8.22
6,"CCOc1ncc(-c2cccc(S(=O)(=O)CC)c2)c2c1[nH]c1ncc(C)cc12 [Compound 51, 5-(3-Ethanesulfonyl-phenyl)-8-ethoxy-3-methyl-9H-dipyrido[2,3-b;4′,3′-d]pyrrole]",8.00 to 8.22
7,"CCS(=O)(=O)c1cccc(-c2cnc(NCCCN(C)C)c3[nH]c4ncc(C)cc4c23)c1 [Compound 41, N′-[5-(3-Ethanesulfonyl-phenyl)-3-methyl-9H-dipyrido[2,3-b;4′,3′-d]pyrrol-8-yl]-N,N-dimethyl-propane-1,3-diamine]",8.00 to 8.22
8,"CN1CCC(COc2ccc(-c3cccc(C(=O)NC4CC4)c3)c3c2[nH]c2ncc(Cl)cc23)CC1 [Compound 285, 3-(3-chloro-8-((1-methylpiperidin-4-yl)methoxy)-9H-pyrido[2,3-b]indol-5-yl)-N-cyclopropylbenzamide]",8.00 to 8.22

# Next, values leading:
row,pIC50,SMILES
1,8.00 to 8.22,"Cc1cnc2[nH]c3c(OCC4CCN(C)CC4)ccc(-c4cccc(S(=O)(=O)C5CC5)c4)c3c2c1 [Compound 179, 5-(3-(cyclopropylsulfonyl)phenyl)-3-methyl-8-((1-methylpiperidin-4-yl)methoxy)-9H-pyrido[2,3-b]indole]"
2,≥ 8.30,"CCN(CCCOc1ccc(-c2cccc(S(=O)(=O)C3CC3)c2)c2c1[nH]c1ncc(C)cc12)CCOP(=O)(OC(C)(C)C)OC(C)(C)C [Compound 271, di-tert-butyl-2-((3-(5-(3-(cyclopropylsulfonyl)phenyl)-3-methyl-9H-pyrido[2,3-b]indol-8-yloxy)propyl)(ethyl)amino)ethyl phosphate]"
3,8.00 to 8.22,"CCN(CCCOc1ccc(-c2cccc(S(=O)(=O)C3CC3)c2)c2c1[nH]c1ncc(C)cc12)CCOP(=O)(O)O [Compound 272, 2-((3-(5-(3-(cyclopropylsulfonyl)phenyl)-3-methyl-9H-pyrido[2,3-b]indol-8-yloxy)propyl)(ethyl)amino)ethyl dihydrogen phosphate]"
4,≤ 7.96,"COc1ccc(-c2cccc(NC(=O)C3CC3)c2)c2c1[nH]c1ncc(C)cc12 [Compound 163, N-(3-(8-methoxy-3-methyl-9H-pyrido[2,3-b]indol-5-yl)phenyl)cyclopropanecarboxamide]"
5,≤ 7.96,"Cc1cnc2[nH]c3c(C)c(C(=O)NCCN(C)C)cc(-c4cccc(NC(=O)C5CC5)c4)c3c2c1 [Compound 112, 5-(3-(cyclopropanecarboxamido)phenyl)-N-(2-(dimethylamino)ethyl)-3,8-dimethyl-9H-pyrido[2,3-b]indole-7-carboxamide]"
